Measurements from patent US7132437B2, “Renal-selective biphenylalkyl 1H-substituted-1,2,4-triazole angiotensin II antagonists for treatment of hypertension” (G.D. Searle, priority 1990, dated 2006).

Tests used:
[1] = target: T1, smooth muscle angiotensin II receptor; experiment: Assay A: Angiotensin II Binding Activity; settings: rat uterine membrane preparation, displacement of 125I-AII
T1 construct: Rat uterine membranes were prepared from fresh tissue
Description: Assay A: Angiotensin II Binding Activity
Compounds of Formula I were tested for ability to bind to the smooth muscle angiotensin II receptor using a rat uterine membrane preparation. […] Other chemicals were obtained from Sigma Chemical Co. This assay was carried out according to the method of Douglas et al [Endocrinology, 106, 120–124 (1980)]. Rat uterine membranes were prepared from fresh tissue. All procedures were carried out at 4° C. Uteri were stripped of fat and homogenized in phosphate-buffered saline at pH 7.4 containing 5 mM EDTA. The homogenate was centrifuged at 1500×g for 20 min., and the supernatant was recentrifuged at 100,000×g for 60 min. The pellet was resuspended in buffer consisting of 2 mM EDTA and 50 mM Tris-HCl (pH 7.5) to a final protein concentration of 4 mg/ml. […] The reaction was initiated by the addition of membrane protein and the mixture was incubated at 25° C. for 60 min. The incubation was terminated with ice-cold 50 mM Tris-HCl (pH 7.5) and the mixture was filtered to separate membrane-bound labelled peptide from the free ligand. The incubation tube and filter were washed with ice-cold buffer. Filters were assayed for radioactivity in a Micromedic gamma counter. Nonspecific binding was defined as binding in the presence of 10 μM of unlabelled AII. Specific binding was calculated as total binding minus nonspecific binding. […] Binding data were analyzed by a nonlinear least-squares curve fitting program.

rabbit aortic rings = experiment: Assay B: In Vitro Vascular Smooth Muscle Response for AII; type: cell-based; settings: for Assay B pA2 / Kb: antagonist at 10^-5 M, two values per cell = aorta rings from two rabbits; for Kb: Oryctolagus cuniculus, read-out: Assay B pA2 (converted)
Description: Assay B: In Vitro Vascular Smooth Muscle-Response for ATT
Compounds of Formula I were tested for antagonist activity in rabbit aortic rings. Male New Zealand white rabbits (2–2.5 kg) were sacrificed using an overdose of pentobarbital and exsanguinated via the carotid arteries. The thoracic aorta was removed, cleaned of adherent fat and connective tissue and then cut into 3-mm ring segments. The endothelium was removed from the rings by gently sliding a rolled-up piece of filter paper into the vessel lumen. The rings were then mounted in a water-jacketed tissue bath, maintained at 37° C., between moveable and fixed ends of a stainless steel wire with the moveable end attached to an FT03 Grass transducer coupled to a Model 7D Grass Polygraph for recording isometric force responses. The bath was filled with 20 ml of oxygenated (95% oxygen/5% carbon dioxide) Krebs solution of the following composition […]: 130 NaCl, 15 NaHCO3, 15 KCl, 1.2 NaH2PO4, 1.2 MgSO4, 2.5 CaCl2, and 11.4 glucose. The preparations were equilibrated for one hour before approximately one gram of passive tension was placed on the rings. Angiotensin II concentration-response curves were then recorded (3×10^−10 to 1×10–5 M). Each concentration of AII was allowed to elicit its maximal contraction, and then AII was washed out repeatedly for 30 minutes before rechallenging with a higher concentration of AII. Aorta rings were exposed to the test antagonist at 10^−5 M for 5 minutes before challenging with AII. Adjacent segments of the same aorta ring were used for all concentration-response curves in the presence or absence of the test antagonist. The effectiveness of the test compound was expressed in terms of pA2 values and were calculated according to H. O. Schild [Br. J. Pharmacol. Chemother., 2, 189–206 (1947)]. […] Each test antagonist was evaluated in aorta rings from two rabbits.

Molecule	IC50 [1] [nM]	Assay B pA2 (rabbit aortic rings)	other results
CCCCc1nc(CCC2CCCCC2)n(Cc2ccc(-c3ccccc3-c3nnn[nH]3)cc2)n1 (single isomer, unassigned) [Example 42, 5-[4′-[[3-butyl-5-(2-cyclohexylethyl)-1H-1,2,4-triazol-1-yl]methyl][1,1′-biphenyl]-2-yl]-1H-tetrazole]	370	6.26	–
CCCCc1nc(C(F)F)n(Cc2ccc(-c3ccccc3-c3nnn[nH]3)cc2)n1 (single isomer, unassigned) [Example 48, 5-[4′-[[3-butyl-5-(difluoromethyl)-1H-1,2,4-triazol-1-yl]methyl][1,1′-biphenyl]-2-yl]-1H-tetrazole]	680	–	–
CCCCc1nc(CCC)n(Cc2ccc(-c3ccccc3C(=O)O)cc2)n1 [Example 15, 4′-[(3-butyl-5-propyl-1H-1,2,4-triazol-1-yl)methyl]-[1,1′-biphenyl]-2-carboxylic acid]	16	–	Kb (rabbit aortic rings): 4.9 nM
CCCCc1nc(CCCC)n(Cc2ccc(-c3ccccc3C(=O)O)cc2)n1 [Example 2, 4′-[(3,5-dibutyl-1H-1,2,4-triazol-1-yl)methyl][1,1′-biphenyl]-2-carboxylic acid]	–	–	Kb (rabbit aortic rings): 42.7 nM
CCCCc1nc(CC(OCC)OCC)nn1Cc1ccc(-c2ccccc2-c2nnn[nH]2)cc1 (single isomer, unassigned) [Example 38, 5-[4′-[[5-butyl-3-(2,2-diethyoxyethyl)-1H-1,2,4-triazol-1-yl]methyl][1,1′-biphenyl]-2-yl]-1H-tetrazole]	10	–	–
CCCCc1nc(CC(OCC)OCC)n(Cc2ccc(-c3ccccc3-c3nnn[nH]3)cc2)n1 (single isomer, unassigned) [Example 37, 5-[4′-[[3-butyl-5-(2,2-diethyoxyethyl)-1H-1,2,4-triazol-1-yl]methyl][1,1′-biphenyl]-2-yl]-1H-tetrazole]	340	6.85	–
CCCCc1nc(C(OC)OC)nn1Cc1ccc(-c2ccccc2-c2nnn[nH]2)cc1 (single isomer, unassigned) [Example 24]	10	7.73	–
CCCCCCCCc1nc(CCCC)n(Cc2ccc(-c3ccccc3-c3nnn[nH]3)cc2)n1 (single isomer, unassigned) [Example 29, 5-[4′-[(5-butyl-3-octyl-1H-1,2,4-triazol-1-yl)methyl][1,1′-biphenyl]-2-yl]-1H-tetrazole]	160	–	–
CCCCc1nc(Cl)n(Cc2ccc(-c3ccccc3C(=O)O)cc2)n1 (single isomer, unassigned) [Example 8, 4′-[(3-butyl-5-chloro-1H-1,2,4-triazol-1-yl)methyl][1,1′-biphenyl]-2-carboxylic acid]	17000	–	–
CCCCc1nc(CCC)nn1Cc1ccc(-c2ccccc2C(=O)O)cc1 [Example 14, 4′-[(5-butyl-3-propyl-1H-1,2,4-triazol-1-yl)methyl]-[1,1′-biphenyl]-2-carboxylic acid]	–	–	Kb (rabbit aortic rings): 1.45 nM
CCCCc1nc(CCC(C)C)nn1Cc1ccc(-c2ccccc2C(=O)O)cc1 [Example 17, 4′-[(5-butyl-3-isopentyl-1H-1,2,4-triazol-1-yl]methyl)-[1,1′-biphenyl]-2-carboxylic acid]	4	–	Kb (rabbit aortic rings): 2.29 nM
CCCCc1ncnn1Cc1ccc(-c2ccccc2C(=O)O)cc1 (single isomer, unassigned) [Example 18, 4′-[(5-butyl-1H-1,2,4-triazol-1-yl)methyl][1,1′-biphenyl]-2-carboxylic acid]	970	6.09	–
CCCCc1nc(C(F)F)nn1Cc1ccc(-c2ccccc2-c2nnn[nH]2)cc1 (single isomer, unassigned) [Example 47, 5-[4′-[[5-butyl-3-(difluoromethyl)-1H-1,2,4-triazol-1-yl]methyl][1,1′-biphenyl]-2-yl]-1H-tetrazole]	21	7.58	–
1,1-dimethylethyl [3-butyl-[1-2′-(1H-tetrazol-5-yl)[1,1′-biphenyl]-4-ylmethyl]-1H-1,2,4-triazol-5-yl]methylcarbamate [Example 34]	640	–	–
CCCCc1nc(CCC2CCCCC2)nn1Cc1ccc(-c2ccccc2-c2nnn[nH]2)cc1 (single isomer, unassigned) [Example 43, 5-[4′-[[5-butyl-3-(2-cyclohexylethyl)-1H-1,2,4-triazol-1-yl]methyl][1,1′-biphenyl]-2-yl]-1H-tetrazole]	19	–	–
CCCCc1nc(CNC(C)=O)nn1Cc1ccc(-c2ccccc2-c2nnn[nH]2)cc1 [Example 31, N-[[5-butyl-1-[2′-(1H-tetrazol-5-yl)[1,1′-biphenyl]-4-ylmethyl]-1H-1,2,4-triazol-3-yl]methyl]acetamide]	14	–	–
CCCCc1nc(CCCN)n(Cc2ccc(-c3ccccc3-c3nnn[nH]3)cc2)n1 [Example 71, 5-[4-[[3-butyl-5-(3-aminopropyl)-1H-1,2,4-triazol-1-yl]methyl][1,1′-biphenyl]-2-yl]-1H-tetrazole]	–	–	Assay B antagonist activity (symbol in pA2 column) (rabbit aortic rings): * (Antagonist activity not observed up to 10 μM of test compound.)
CCCCc1nc(C(F)(F)C(F)(F)C(F)(F)F)nn1Cc1ccc(-c2ccccc2-c2nnn[nH]2)cc1 [Example 70, 5-[4′-[[3-(1,1,2,2,3,3,3-heptafluoropropyl)-5-butyl-1H-1,2,4-triazol-1-yl]methyl][1,1′-biphenyl]-2-yl]-1H-tetrazole]	44	–	–
CCCCc1nc(CC)n(Cc2ccc(-c3ccccc3-c3nnn[nH]3)cc2)n1 (single isomer, unassigned) [Example 40, 5-[4′-[(3-butyl-5-ethyl-1H-1,2,4-triazol-1-yl)methyl][1,1′-biphenyl]-2-yl]-1H-tetrazole]	83	–	–
CCCCc1nc(C(F)(F)CCC)n(Cc2ccc(-c3ccccc3C(=O)O)cc2)n1 [Example 11, 4′-[[3-butyl-5-(1,1-difluorobutyl)-1H-1,2,4-triazol-1-yl]methyl][1,1′-biphenyl]-2-carboxylic acid]	160	–	–
CCCCc1ncn(Cc2ccc(-c3ccccc3C(=O)O)cc2)n1 (single isomer, unassigned) [Example 19, 4′-[(3-butyl-1H-1,2,4-triazol-1-yl)methyl][1,1′-biphenyl]-2-carboxylic acid]	12000	5.35	–
CCCCc1nc(C)n(Cc2ccc(-c3ccccc3-c3nnn[nH]3)cc2)n1 (single isomer, unassigned) [Example 33, 5-[4′-[(3-butyl-5-methyl-1H-1,2,4-triazol-1-yl)methyl][1,1′-biphenyl]-2-yl]-1H-tetrazole]	630	–	–
CCCCCc1nc(CN)nn1Cc1ccc(-c2ccccc2-c2nnn[nH]2)cc1 [Example 13, 5-[4′-[(3-aminomethyl-5-pentyl-1H-1,2,4-triazol-1-yl)methyl][1,1′-biphenyl]-2-yl]-1H-tetrazole]	–	–	Kb (rabbit aortic rings): 2 nM
CCCc1nc(CN)nn1Cc1ccc(-c2ccccc2-c2nnn[nH]2)cc1 [Example 12, 5-[4′-[(3-aminomethyl-5-propyl-1H-1,2,4-triazol-1-yl)methyl][1,1′-biphenyl]-2-yl]-1H-tetrazole]	6	–	Kb (rabbit aortic rings): 2.19 nM
CCCCc1nc(CC)nn1Cc1ccc(-c2ccccc2-c2nnn[nH]2)cc1 (single isomer, unassigned) [Example 39, 5-[4′-[(5-butyl-3-ethyl-1H-1,2,4-triazol-1-yl)methyl][1,1′-biphenyl]-2-yl]-1H-tetrazole]	10	7.84	–
CCCCc1nc(CCc2ccccc2)n(Cc2ccc(-c3ccccc3-c3nnn[nH]3)cc2)n1 (single isomer, unassigned) [Example 25]	480	6.73	–
CCCCc1nc(C=O)nn1Cc1ccc(-c2ccccc2-c2nnn[nH]2)cc1 [Example 49, 5-butyl-1-[2′-(1H-tetrazol-5-yl)[1,1′-biphenyl]-4-ylmethyl]-1H-1,2,4-triazole-3-carboxaldehyde]	–	7.07	–
CCCCc1nc(CCC(C)C)n(Cc2ccc(-c3ccccc3C(=O)O)cc2)n1 [Example 16]	–	–	Kb (rabbit aortic rings): 1.12 nM
